In patent US20030232040A1, “Biocidal methods and compositions” (SureCide Technologies, LLC, priority 2000, published 2003):
Entries after “also recorded” stand apart in the source; their conditions may differ.

Test system: Escherichia coli (ATCC strain #25404)
Assay: High-throughput 96-well liquid outgrowth system for the measurement of bacterial cell killing
Type: cell-based
Conditions: for log kill / antimicrobial effect of the stress inducer after iron pre-incubation: 10 min 1 mM FeCl2 in iso-osmotic saline (130 mM NaCl, pH 5.0), then 10 min a range of concentrations of the stress inducer; for kill by the stress inducer alone: no FeCl2 pre-treatment, 10 min a range of concentrations of the stress inducer, iso-osmotic saline; for antimicrobial effectiveness: 1 mM FeCl2 10 min
Text: Classical methods for determining antimicrobial effects involve exposure of cells to disinfectant or antiseptic agents contained in tubes or vials, removal of the agents by centrifugation, washing of the cells to remove disinfectant residues, plating of the cells at a number of dilutions onto culture plates, and enumeration of the resulting colonies. Such methods are inadequate for the purposes of the present invention for two principle reasons, namely, treatment of cells in tubes is too lengthy for the determination of rapid effects (e.g., on the order of 1-5 minutes), and treatment and plating are too laborious for the accurate determination of many different interactions in parallel. […] In these experiments, the assays were prepared as follows, and quadruplicate wells were treated in parallel. A high-throughput 96-well liquid outgrowth system was devised for the measurement of bacterial cell killing. Known numbers of living cells were treated, and unknown numbers of surviving cells were quantified by measuring the rate of liquid outgrowth of the culture relative to a standard curve, as determined by optical density. Cells of Escherichia coli (ATCC strain #25404) were grown to mid-log cell density (absorbance of about 0.1 at 600 nm) in 100 mL of Luria Broth (LB) at 37° C. in Erlenmeyer flasks, and then chilled at 0° C. on ice prior to use. “Treatment” plates were prepared as follows. Chilled cells were aliquoted (approximately 50 μL) into wells of a 96-well filtration plate (Multiscreen® (Millipore Corporation, Bedford, Mass.), having a 0.22 μm hydrophilic Durapore® membrane at the bottom of the wells). The LB medium was removed by vacuum filtration, and the remaining cells were washed with 150 μL of an iso-osmotic solution, either sterile saline solution (SSS, 130 mM NaCl, pH 5.0) or sterile HEPES-buffered saline (HBS, 0.595% HEPES, 0.82% NaCl, pH 7.05). The cells on the treatment plate were then exposed to various free iron (for example, FeCl2) and optional stress inducer treatments as described in the examples delineated below. The FeCl2 solutions were always prepared fresh on the day of use from the anhydrous salt. The cells in a set number of wells were not treated; these untreated cells were serially diluted and used to construct a standard curve. “Reading” plates were made from the treatment plate by adding approximately 130 μL of sterile LB medium to each well of three sterile polycarbonate microtiter plates (Corning). […] of the resuspended cells from all wells of the treatment plate were then transferred to a corresponding well on the reading plates, which were then sealed (for example, using polypropylene sealing mats) and incubated at 37° C. with vigorous shaking. Absorbance readings of turbidity (measured at λ=600 nm) were recorded at approximately 45minute intervals over a time course ranging from about two to about seven hours. Cell densities of the wells containing the treated cells were calculated by comparison to the standard curve. Absorbance readings were performed at 600 nm using a standard microtiter plate absorbance reader (Multiskan® microplate reader by Labsystems, Helsinki, FI). The measurements collected for the treated cells were disregarded unless they fell within a region of linear growth in liquid culture, which was individually determined for each time point reading. Generally, acceptable measurements ranged from about 0.020 to about 0.200 OD units. […] Techniques for calculating slopes and determining concentrations from standard curves are known to one skilled in the art, FeCl2 solutions were prepared from the anhydrous salt, and peroxide (H2O2) dilutions are prepared fresh from a 30% w/w stock solution. Cells were plated as described above, then treated with FeCl2 at concentrations ranging from about 1 μM to about 1.024 mM (in HBS). Cells were exposed to the FeCl2 solution for approximately 10 minutes at room temperature (i.e., iron “pre-treatment”).

Row | Compound | log kill / antimicrobial effect of the stress inducer after iron pre-incubation | kill by the stress inducer alone | other results
1 | OCl [hypochlorite] | highly effective | none of the concentrations of bleach used resulted in any kill alone | 
2 | O=P([O-])([O-])[O-].[Na+].[Na+].[Na+] [TSP, trisodium phosphate] | enhanced by pre-incubation of the cells with free iron |  | 
3 | [Cl][Fe][Cl] [FeCl2] |  |  | antimicrobial effectiveness (then NaCl near the iso-osmotic point (130 mM) (FIG. 4)): minimally effective; antimicrobial effectiveness (then hypo-osmotic (0 mM NaCl) or hyper-osmotic (600 mM) conditions (FIG. 4)): maximally effective; cell killing (10 min 1 mM FeCl2 in iso-osmotic saline, then 10 min in a range of osmolarities of sodium chloride (FIG. 4)): resulted in killing at all osmolarities; FeCl2 pre-treatment concentration that increases the sensitivity of cells to subsequent H2O2 (10 min FeCl2 in HBS, then 10 min H2O2 about 73 μM to about 1 mM (FIG. 2B)): ≥ 16 µM; cell killing (decrease in cell viability) (FeCl2 alone, about 1 μM to about 1.024 mM in iso-osmotic HBS, 10 min room temperature, no hydrogen peroxide (FIG. 2A)): did not result in appreciable cell killing at any concentration; also recorded: relatively small antimicrobial effect; reduction of microbial population (FeCl2 pre-treatment 10 min in HBS, then H2O2 10 min at concentrations as low as 73 μM (FIG. 2A)): reduced the microbial populations significantly
4 | O=C(O)CC(O)(CC(=O)O)C(=O)O [citric acid] | potentiated by pre-incubation with iron |  | 
5 | lysozyme | highly effective | none of the concentrations of lysozyme used resulted in any kill alone | 
